In the experiment the target is T1, recombinant P. falciparum DHODH (Plasmodium falciparum, UniProt Q08210).
T1 sequence (Q08210 24-569): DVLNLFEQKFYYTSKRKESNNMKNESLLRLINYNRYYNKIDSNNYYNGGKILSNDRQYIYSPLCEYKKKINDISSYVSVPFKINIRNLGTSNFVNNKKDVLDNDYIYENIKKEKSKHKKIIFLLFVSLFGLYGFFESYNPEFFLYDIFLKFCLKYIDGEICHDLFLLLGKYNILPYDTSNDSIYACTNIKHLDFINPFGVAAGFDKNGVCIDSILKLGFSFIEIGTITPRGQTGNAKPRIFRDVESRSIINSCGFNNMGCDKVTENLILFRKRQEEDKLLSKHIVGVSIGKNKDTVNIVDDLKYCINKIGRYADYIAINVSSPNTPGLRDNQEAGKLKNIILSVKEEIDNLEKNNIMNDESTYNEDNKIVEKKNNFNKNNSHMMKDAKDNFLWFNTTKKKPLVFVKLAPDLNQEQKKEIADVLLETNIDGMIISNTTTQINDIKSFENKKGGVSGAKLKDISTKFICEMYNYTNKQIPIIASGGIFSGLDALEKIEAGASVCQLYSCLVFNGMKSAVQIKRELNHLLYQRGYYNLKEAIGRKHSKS
The experiment is described as follows: P. falciparum DHODH enzymatic assay. To be noted: biochemical assay.

Structures are written as SMILES.

`Cc1ccc(-n2nc(OC(C)C)c(Oc3c(F)cccc3F)c2C)nn1` [22a, 3-(4-(2,6-Difluorophenoxy)-3-isopropoxy-5-methyl-1H-pyrazol-1-yl)-6-methylpyridazine]: the “inhibition of recombinant P. falciparum DHODH” value is “completely devoid of effect”.

In the case of `Cc1c(Oc2c(F)cccc2F)c(OC(C)C)nn1-c1ccc(C2CC2)nn1` [compound 10q, 3-Cyclopropyl-6-(4-(2,6-difluorophenoxy)-3-isopropoxy-5-methyl-1H-pyrazol-1-yl)pyridazine], the “inhibition of recombinant P. falciparum DHODH” value is reported as “completely devoid of effect”.

Source of the values: article PMC4516315 (Journal of Medicinal Chemistry, 2015).
